Measured values as given in patent US8361496B2, “Phospholipid gel compositions for drug delivery and methods of treating conditions using same” (Idexx Laboratories Inc., priority 2004, dated 2013).

Test: Clinical study 5.16: serum concentration of tilmicosin after oral administration
Assay type: in vivo
Details: oral 20 mg/kg, gelatin capsule with the gel of Example 5.14
Description: Tilmicosin was orally administered to a dog using the pharmaceutical composition of Example 5.14. A sufficient amount of the gel of example 5.14 was placed in a gelatin capsule to provide a dose of 20 mg/kg to the dog. The dog was then orally administered the gelatin capsule containing the tilmicosin pharmaceutical composition of Example 5.14. Blood was then withdrawn from the dog at various time intervals and the serum concentration of tlmicosin determined by the following procedure: (i) A C-18 cartridge (commercially available from Waters Corp. of Milford, Mass.) was connected to a 20 mL syringe and to a single diaphragm vacuum pump (commercially available from Gast Manufacturing Inc. of Benton Harbor, Mich.). […]

- time for which tilmicosin is provided in the blood of the dog: at least 48 h
SMILES: CC[C@H]1OC(=O)C[C@@H](O)[C@H](C)[C@@H](O[C@@H]2O[C@H](C)[C@@H](O)[C@H](N(C)C)[C@H]2O)[C@@H](CCN2C[C@H](C)C[C@H](C)C2)C[C@@H](C)C(=O)/C=C/C(C)=C/[C@@H]1CO[C@@H]1O[C@H](C)[C@@H](O)[C@@H](OC)[C@H]1OC [Tilmicosin]
